{"source": "patent US9702869B2", "about": "“Assays, antibodies, immunogens and compositions related to 5-FU” (WELLSTAT DIAGNOSTICS, LLC, priority 2011, dated 2017)", "key": {"[1]": {"test_system": "monoclonal antibody 61C6", "test": "Cross-reactivity evaluation with lyophilized reagents (Bi-mAb-Beads capture, TAG Plus 1-5C-5-FU-BSA detector)", "format": "binding, Balb/c mouse", "procedure": "This experiment was performed to test the specificity of the monoclonal antibody 61C6 against 5-FU analogues, pro-drugs and interference reagents. […] In this Example, the components of 5-FU assay (capture, detector) were lyophilized and the sample (calibrator, controls, and spiked plasma samples) were added directly to the lyophilized reagent pellets.\nThe assay was prepared using the following protocol. […] The capture and the detector solutions were aliquoted (20 μL) and lyophilized.\nThe assay procedure was as follows. The electrostatic on the surface of the microplate was reduced by using a Zerostat Antistatic Device prior to use. The device was pointed on the surface of the microplate, squeezed and the trigger released a few times across the microplate. 1 lyophilized pellet of each capture and detector reagent was transferred into plate wells using the Vacuum Pick-Up System. A hollow needle tip was attached onto the pick-up pen, and the finger controlled vacuum was used for picking up (the index finger was placed over the hole so that vacuum was drawn through the needle) or releasing pellet (lifting the index finger off of the hole). On a metal plate holder of a Digital Heat Block set at 37±2° C., 50 μL of each calibrator, control, and sample (in this case cross-reactivity panels) were added in duplicate directly into plate wells containing 2 lyophilized pellets. The plate was placed on the Micromix shaker set at Form 8 & Amp 6 for 30 seconds to mix. The plate was then placed in the metal plate holder of a Digital Heat Block set at 37±2° C. The plate was covered with a plate cover and incubated for 5±0.5 minutes."}, "[2]": {"test_system": "mAb 61C6", "test": "Competitive ECL cross-reactivity test in human plasma with and without 5-FU", "conditions": "for Cross-Reactivity (%): human plasma, chemicals 10 μg/mL, chemotherapy drugs 100 μg/mL; for cross-reactivity: with and without 5-FU, Table 5"}, "[3]": {"test_system": "antibody 61C6", "test": "5-FU ECL assay with antibody 61C6, summary of cross-reactivity", "format": "binding, Balb/c mouse", "conditions": "5-FU assay with antibody 61C6", "procedure": "The capture reagent 1-5C-5-FU-M270 beads appeared to be stable at 2-8° C. for at least 40 hours. […] The functional sensitivity was determined to be approximately 10 ng/mL (which is an estimate of functional sensitivity based on the calibrator curve)."}, "[4]": {"test_system": "anti-5-FU 61C6 monoclonal antibody", "test": "Assay timing evaluation of competitive 5-FU ECL immunoassay", "format": "binding, Balb/c mouse", "conditions": "25 ng/mL of 5-FU in charcoal stripped plasma"}, "[5]": {"conditions": "Without 5-FU, lyophilized reagents, human plasma"}}}
{"molecule": "Cc1cn([C@H]2C[C@H](O)[C@@H](CO)O2)c(=O)[nH]c1=O", "note": "[Thymidine]", "values": [{"measurement": "% Cross-React", "setting": "[1]; With 75 ng/mL Spiked 5-FU", "result": 1.0, "unit": "%"}, {"measurement": "% Cross-React", "setting": "[1]; With 1000 ng/mL Spiked 5-FU", "result": 1.3, "unit": "%"}, {"measurement": "% Cross-React", "setting": "[1]; [5]", "result": 0.2, "unit": "%"}, {"measurement": "Cross-Reactivity (%)", "setting": "[2]; With 5-FU (379 ng/mL)", "result": 0.13, "unit": "%"}, {"measurement": "Cross-Reactivity (%)", "setting": "[2]; Without 5-FU", "result": 0.05, "unit": "%"}]}
{"molecule": "O=c1ccn([C@@H]2O[C@H](CO)[C@@H](O)[C@H]2O)c(=O)[nH]1", "note": "[Uridine]", "values": [{"measurement": "% Cross-React", "setting": "[1]; With 75 ng/mL Spiked 5-FU", "result": 1.6, "unit": "%"}, {"measurement": "% Cross-React", "setting": "[1]; With 1000 ng/mL Spiked 5-FU", "result": 0.9, "unit": "%"}, {"measurement": "% Cross-React", "setting": "[1]; [5]", "result": 0.5, "unit": "%"}, {"measurement": "Cross-Reactivity (%)", "setting": "[2]; With 5-FU (379 ng/mL)", "result": 0.16, "unit": "%"}, {"measurement": "Cross-Reactivity (%)", "setting": "[2]; Without 5-FU", "result": 0.21, "unit": "%"}]}
{"molecule": "O=C1[O][Pt]2([NH][C@@H]3CCCC[C@H]3[NH]2)[O]C1=O", "note": "[Oxaliplatin]", "values": [{"measurement": "% Cross-React", "setting": "[1]; With 1000 ng/mL Spiked 5-FU", "result": 0.0, "unit": "%"}, {"measurement": "Cross-Reactivity (%)", "setting": "[2]; With 5-FU (379 ng/mL)", "result": 0.01, "unit": "%"}, {"measurement": "Cross-Reactivity (%)", "setting": "[2]; Without 5-FU", "result": 0.000, "unit": "%"}, {"measurement": "cross-reactivity", "setting": "[2]", "result": "essentially undetectable"}]}
{"molecule": "CCCCCOC(=O)Nc1nc(=O)n([C@@H]2O[C@H](C)[C@@H](O)[C@H]2O)cc1F", "note": "[Capecitabine]", "values": [{"measurement": "% Cross-React", "setting": "[1]; With 75 ng/mL Spiked 5-FU", "result": 0.7, "unit": "%"}, {"measurement": "% Cross-React", "setting": "[1]; With 1000 ng/mL Spiked 5-FU", "result": 0.6, "unit": "%"}, {"measurement": "% Cross-React", "setting": "[1]; [5]", "result": 0.0, "unit": "%"}, {"measurement": "Cross-Reactivity (%)", "setting": "[2]; With 5-FU (379 ng/mL)", "result": "−0.13", "unit": "%"}, {"measurement": "Cross-Reactivity (%)", "setting": "[2]; Without 5-FU", "result": 0.00, "unit": "%"}]}
{"molecule": "Cc1c[nH]c(=O)[nH]c1=O", "note": "[Thymine]", "values": [{"measurement": "% Cross-React", "setting": "[1]; With 75 ng/mL Spiked 5-FU", "result": 2.5, "unit": "%"}, {"measurement": "% Cross-React", "setting": "[1]; With 1000 ng/mL Spiked 5-FU", "result": 2.2, "unit": "%"}, {"measurement": "% Cross-React", "setting": "[1]; [5]", "result": 1.0, "unit": "%"}, {"measurement": "Cross-Reactivity (%)", "setting": "[2]; With 5-FU (379 ng/mL)", "result": 0.80, "unit": "%"}, {"measurement": "Cross-Reactivity (%)", "setting": "[2]; Without 5-FU", "result": 0.59, "unit": "%"}]}
{"molecule": "O=c1[nH]c(=O)n(C2CCCO2)cc1F", "note": "(centres unmarked) [Tegafur]", "values": [{"measurement": "cross-reactivity", "setting": "[3]", "result": "less than 12%"}, {"measurement": "% Cross-React", "setting": "[1]; With 75 ng/mL Spiked 5-FU", "result": 56, "unit": "%"}, {"measurement": "% Cross-React", "setting": "[1]; With 1000 ng/mL Spiked 5-FU", "result": 45, "unit": "%"}, {"measurement": "% Cross-React", "setting": "[1]; [5]", "result": 42, "unit": "%"}, {"measurement": "Cross-Reactivity (%)", "setting": "[2]; With 5-FU (379 ng/mL)", "result": 15.5, "unit": "%"}, {"measurement": "Cross-Reactivity (%)", "setting": "[2]; Without 5-FU", "result": 16.2, "unit": "%"}]}
{"molecule": "O=c1[nH]cc(F)c(=O)[nH]1", "note": "[5-FU, 5-Fluorouracil]", "values": [{"measurement": "ECL signal compared to CAL1", "setting": "[4]; 5 minutes incubation at 37° C.", "result": 61, "unit": "%"}, {"measurement": "ECL signal compared to CAL1", "setting": "[4]; other incubation timing (10, 15 minutes)", "result": 78, "unit": "%"}]}
{"molecule": "CCc1c2c(nc3ccc(OC(=O)N4CCC(N5CCCCC5)CC4)cc13)-c1cc3c(c(=O)n1C2)COC(=O)[C@]3(O)CC", "note": "[Irinotecan]", "values": [{"measurement": "% Cross-React", "setting": "[1]; With 75 ng/mL Spiked 5-FU", "result": 0.1, "unit": "%"}, {"measurement": "% Cross-React", "setting": "[1]; With 1000 ng/mL Spiked 5-FU", "result": 0.3, "unit": "%"}, {"measurement": "cross-reactivity", "setting": "[2]", "result": "essentially undetectable"}]}
{"molecule": "Hemoglobin", "values": [{"measurement": "% Cross-React", "setting": "[1]; With 75 ng/mL Spiked 5-FU", "result": 0.0, "unit": "%"}, {"measurement": "% Cross-React", "setting": "[1]; With 1000 ng/mL Spiked 5-FU", "result": "−0.1", "unit": "%"}, {"measurement": "% Cross-React", "setting": "[1]; [5]", "result": 0.0, "unit": "%"}]}
{"molecule": "CN(Cc1cnc2nc(N)nc(N)c2n1)c1ccc(C(=O)N[C@@H](CCC(=O)O)C(=O)O)cc1", "note": "[Methotrexate]", "values": [{"measurement": "% Cross-React", "setting": "[1]; With 75 ng/mL Spiked 5-FU", "result": 0.0, "unit": "%"}, {"measurement": "% Cross-React", "setting": "[1]; With 1000 ng/mL Spiked 5-FU", "result": 0.1, "unit": "%"}, {"measurement": "% Cross-React", "setting": "[1]; [5]", "result": 0.0, "unit": "%"}, {"measurement": "Cross-Reactivity (%)", "setting": "[2]; With 5-FU (379 ng/mL)", "result": "−0.02", "unit": "%"}, {"measurement": "Cross-Reactivity (%)", "setting": "[2]; Without 5-FU", "result": 0.000, "unit": "%"}, {"measurement": "cross-reactivity", "setting": "[2]", "result": "essentially undetectable"}]}
{"molecule": "O=C1NCC(F)C(=O)N1", "note": "(centres unmarked) [DH5FU, 5-Fluorodihydropyrimidine-2,4-dione]", "values": [{"measurement": "% Cross-React", "setting": "[1]; With 1000 ng/mL Spiked 5-FU", "result": 1.0, "unit": "%"}, {"measurement": "Cross-Reactivity (%)", "setting": "[2]; With 5-FU (379 ng/mL)", "result": 1.74, "unit": "%"}, {"measurement": "Cross-Reactivity (%)", "setting": "[2]; Without 5-FU", "result": 2.62, "unit": "%"}]}
{"molecule": "O=c1cc[nH]c(=O)[nH]1", "note": "[Uracil]", "values": [{"measurement": "% Cross-React", "setting": "[1]; With 75 ng/mL Spiked 5-FU", "result": 3.4, "unit": "%"}, {"measurement": "% Cross-React", "setting": "[1]; With 1000 ng/mL Spiked 5-FU", "result": 2.6, "unit": "%"}, {"measurement": "% Cross-React", "setting": "[1]; [5]", "result": 1.9, "unit": "%"}, {"measurement": "Cross-Reactivity (%)", "setting": "[2]; With 5-FU (379 ng/mL)", "result": 0.11, "unit": "%"}, {"measurement": "Cross-Reactivity (%)", "setting": "[2]; Without 5-FU", "result": 0.94, "unit": "%"}]}
{"molecule": "Nc1nc(=O)c2c([nH]1)NCC(CNc1ccc(C(=O)N[C@@H](CCC(=O)O)C(=O)O)cc1)N2C=O", "note": "(mixture of isomers) [Folinic Acid]", "values": [{"measurement": "% Cross-React", "setting": "[1]; With 75 ng/mL Spiked 5-FU", "result": 0.1, "unit": "%"}, {"measurement": "% Cross-React", "setting": "[1]; With 1000 ng/mL Spiked 5-FU", "result": 0.0, "unit": "%"}, {"measurement": "% Cross-React", "setting": "[1]; [5]", "result": 0.0, "unit": "%"}, {"measurement": "Cross-Reactivity (%)", "setting": "[2]; With 5-FU (379 ng/mL)", "result": "−0.01", "unit": "%"}, {"measurement": "Cross-Reactivity (%)", "setting": "[2]; Without 5-FU", "result": 0.000, "unit": "%"}, {"measurement": "cross-reactivity", "setting": "[2]", "result": "essentially undetectable"}]}
{"molecule": "N.N.[Cl][Pt][Cl]", "note": "[Cisplatin]", "values": [{"measurement": "% Cross-React", "setting": "[1]; With 1000 ng/mL Spiked 5-FU", "result": 0.1, "unit": "%"}, {"measurement": "Cross-Reactivity (%)", "setting": "[2]; With 5-FU (379 ng/mL)", "result": "−0.04", "unit": "%"}, {"measurement": "Cross-Reactivity (%)", "setting": "[2]; Without 5-FU", "result": 0.001, "unit": "%"}, {"measurement": "cross-reactivity", "setting": "[2]", "result": "essentially undetectable"}]}
